These results are taken from patent publication US20100016546A1, “Therapeutic Peptide-Polysaccharide Biomaterials” (priority 2005, published 2010).

Read-outs that look alike come from different tables or passages of the source. No end group written: not given here.

For data set [1], the system named is E. coli BL21(DE3). As to conditions: cited from earlier work.
Data set [2] has as its system E. coli BL21(DE3). Type of data set: cell-based. As to conditions: for Measured Potency: Free Peptide (LC90) / Measured Potency: Peptide/Agarose Conjugate (LC90): E. coli (BL21 (DE3)); for Measured Potency: Peptide/Agarose Conjugate (LC90): effective peptide concentration. How it is done:
Overall, antimicrobial activity can be evaluated by incubating small cultures of E. coli (BL21) at 37° C. with agitation (e.g., ˜3 to ˜5 hrs) in minimal media in the presence/absence of varied amounts of peptide conjugate or free peptide. Aliquots can be collected at predetermined time points to determine the cell density. One OD600 of the solution=2×10^9 CFU/ml. Correlating changes in cell density between cultures incubated with varied amounts of conjugate and cultures grown in the absence of conjugates can provide a means of evaluating the antimicrobial potency of the varied constructs. Assays such as this one are known to be used in evaluating the potency of antimicrobial peptidomimetics and biomaterials.
In one embodiment, the antimicrobial activity of the free peptides and conjugates have been assayed against E. coli BL21(DE3) cultures. In this assay, the bacteria (at ˜1×10^6 CFU/ml) are incubated for 2 hours at 37° C. in 10 mM phosphate (e.g., Na2HPO4) buffer (pH ˜7.5) with varied concentrations of peptide or peptide-conjugate. After this time, 20 μl aliquots of each culture and serial dilutions of the culture are plated onto LB agar plates and incubated over night at 37° C. The number of colonies on these plates is then counted and the survival percentage is determined relative to a control culture. The example contained no peptide.
In another embodiment, a stock solution containing 1 mg of peptide per ml solution may be prepared. Using the stock peptide (1 mg/ml) solution, assays may be prepared (volume of ˜100 μl) at 1 μg/ml, 10 μg/ml, and 100 μg/ml of free peptide (e.g., HBD-332-45). In the control sample, 10 μl of 100 mM phosphate buffer, 80 μl of sterile water and 10 μl of cell cultures may be combined and incubated without peptide for two hours at 37° C. After two hours incubation, 20 μl aliquots of the above solutions, and 1:10, and 1:100 dilutions of each may be plated in LB-agar plates and incubated over night at 37° C.
In another embodiment, peptide conjugate (e.g., HBD-332-45-agarose) with a loading of 3.82 μg of peptide/1 μl of resin may also be assayed at effective peptide concentrations of 1 μg/ml, 10 μg/ml, 25 μg/ml, 50 μg/ml, 75 μg/ml and 100 μg/ml. For example, an effective peptide concentration of 100 μg/ml of suspension may be prepared by using 52.2 μl of a 50% suspension of 3.82 μg/μl of peptide suspension (100 μg×[1 μl/3.82 μg]=26.1 μl). Samples containing varying concentrations of peptide conjugate may be combined with 10 μl of 100 mM phosphate buffer having a pH of about 7.5, 10 μl of cell cultures (˜1×10^7 CFU/ml), and the required volume of sterile water to bring a total volume of 100 μl. This combination may be incubated at 37° C. with agitation for two hours. After incubation, 20 μl of each cell culture and 1:10 and 1:100 dilutions of each cell culture may be plated on LB-agar plates and incubated at 37° C. overnight. Similar protocols may be used to evaluate the antimicrobial activity of the HBD-336-45 peptide and corresponding conjugate. […]
The results of the antimicrobial assay using free HBD-332-45 and agarose conjugate can be seen in FIG. 17. Antimicrobial activity of free HBD-332-45 is given on the left and that of the HBD-332-45 peptide-conjugate is shown on the right. E. coli at 1×10^6 CFU/ml were incubated with varied peptide concentrations (free peptide and peptide conjugate). Serial dilutions (0.1× and 0.01×) of cell cultures in all plates are shown across the figure.

Data set [3] concerns E. coli. Conditions: free peptide; cited from earlier work.

For the substance “KSSTRGRKSSRRKK-OH [HBD-332-45, KSSTRGRKSSRRKK]”, in data set [1], the “Reported Potency: Free Peptide (LC90)” value is ~1 µg/mL. Also, the “Measured Potency: Peptide/Agarose Conjugate (LC50)” value in data set [2] (Escherichia coli, 2 h, pH 7.5) is listed as ~10 μg/ml (LC50). Also, the bacteria killed in data set [2] (free peptide, 1 μg/ml, E. coli 1×10^6 CFU/ml, 2 h) is on record as ~93%. The microbicidal efficiency is > 99% in data set [2] (free peptide, 10 μg/ml) and > 99% in data set [2] (free peptide, 100 μg/ml). Moreover, the “Measured Potency: Free Peptide (LC90)” value in data set [2] (free peptide) stood at 0.20 µg/mL. For the same substance, in data set [2], the “Measured Potency: Peptide/Agarose Conjugate (LC90)” value is ~75 µg/mL. Further, the “antimicrobial activity against E. coli” value in data set [3] was 1 ± 0.1 mg/mL.
In the case of RGRKSSRRKK-OH [HBD-336-45, RGRKSSRRKK], the “Reported Potency: Free Peptide (LC90)” value in data set [1] was ~4 µg/mL. Moreover, the “reduction in the number of colonies” value is recorded as ~67% in data set [2] (free peptide, 1 μg/ml) and ~97% in data set [2] (free peptide, 10 μg/ml). In addition, the “Measured Potency: Free Peptide (LC90)” value in data set [2] (free peptide) is 2.23 µg/mL. The “Measured Potency: Peptide/Agarose Conjugate (LC90)” value in data set [2] is >100 μg/m μg/ml.
With “RGRRSSRRKK-NH2 [HBD-336-45(Rev2), RGRRSSRRKK-NH2]”, the “Measured Potency: Free Peptide (LC90)” value in data set [2] (free peptide) was determined as 0.15 µg/mL. For the same substance, in data set [2], the “Measured Potency: Peptide/Agarose Conjugate (LC90)” value is ~26 µg/mL.
